Laboratory results reported in US6867320B2, “Substituted phenylalkanoic acid derivatives and use thereof” (Asahi Kasei Pharma Corporation, priority 2002, dated 2005).

Test system: PGE2 production from IL-1β-stimulated MG-63 cells
Assay: Suppressing action on PGE2 production from IL-1β-stimulated MG-63 cells
Format: cell-based
Conditions: Homo sapiens, IL-1β 1 ng/ml, 18 hours, read-out: PGE2 production suppression ratio
Description: 1. Suppressing Action on PGE2 Production from IL-1β-Stimulated MG-63 Cells (1) Method for Measurement
An action of suppressing PGE2 production caused by interleukin (IL) 1β as an inflammatory stimulant was studied by the following method. Cells of MG-63, which is a human osteosarcoma cell line (purchased from Dainippon Pharmaceutical), were suspended in EMEM medium (GIBCO) containing 10% fetal bovine serum (BioFluid), and then inoculated to each well of 96-well culture plate at a density of 2×10^4 cells/well and cultured overnight. The medium was changed to EMEM medium containing 0.5% fetal bovine serum, and then a test compound was added with each well. Human interleukin-1β (ENDOGEN) was further added as an inflammatory stimulant at a final concentration of 1 ng/ml. The cells were further cultured for 18 hours. The culture supernatant was collected, and the PGE2 concentration in the culture supernatant was measured by using EIA kit (CAYMAN). By using a well which was not added with the stimulant as a negative control and a well which was added only with the stimulant as a positive control, suppression ratios on PGE2 production were calculated from produced amounts of PGE2 in the well added with the test compound using the following equation. PGE2 production suppression ratio=[1−(C−B)/(A−B)]×100 • A: PGE2 production amount of positive control • B: PGE2 production amount of negative control • C: PGE2 production amount in well added with test compound

Structure (SMILES)	inhibition at 0.4 µM
Cn1ccc2c(-c3cc(CCC(=O)O)ccc3OC3CCCC3)cccc21 [Compound 124, 3-[4-cyclopentyloxy-3-(1-methyl-1H-indol-4-yl)phenyl]propionic acid]	≥ 50%
O=C(O)CCc1ccc(OCC2CCCCC2)c(-c2ccc3cc[nH]c3c2)c1 [Compound 128, 3-[4-cyclohexylmethyloxy-3-(1H-indol-6-yl)phenyl]propionic acid]	≥ 50%
CCCCOc1ccc(CCC(=O)O)cc1-c1ccc2[nH]ccc2c1 [Compound 130, 3-[4-butyloxy-3-(1H-indol-5-yl)phenyl]propionic acid]	≥ 50%
Cc1ccccc1COc1ccc(CCC(=O)O)cc1-c1ccc2[nH]ccc2c1 [Compound 134, 3-[3-(1H-indol-5-yl)-4-(2-methylphenylmethyloxy)phenyl]propionic acid]	≥ 50%
Cc1cccc(COc2ccc(CCC(=O)O)cc2-c2ccc3[nH]ccc3c2)c1 [Compound 136, 3-[3-(1H-indol-5-yl)-4-(3-methylphenylmethyloxy)phenyl]propionic acid]	≥ 50%
Cc1ccc(COc2ccc(CCC(=O)O)cc2-c2ccc3[nH]ccc3c2)cc1 [Compound 138, 3-[3-(1H-indol-5-yl)-4-(4-methylphenylmethyloxy)phenyl]propionic acid]	≥ 50%
O=C(O)CCc1ccc(OCc2cccc(F)c2)c(-c2ccc3[nH]ccc3c2)c1 [Compound 144, 3-[4-(3-fluorophenylmethyloxy)-3-(1H-indol-5-yl)phenyl]propionic acid]	≥ 50%
O=C(O)CCc1ccc(OCc2ccccc2C(F)(F)F)c(-c2ccc3[nH]ccc3c2)c1 [Compound 170, 3-{3-(1H-indol-5-yl)-4-[2-(trifluoromethyl)phenylmethyloxy]-phenyl}propionic acid]	≥ 50%
O=C(O)CCc1ccc(OCc2ccc(C(F)(F)F)cc2)c(-c2ccc3[nH]ccc3c2)c1 [Compound 172, 3-{3-(1H-indol-5-yl)-4-[4-(trifluoromethyl)phenylmethyloxy]-phenyl}propionic acid]	≥ 50%
Cc1cc(C)cc(COc2ccc(CCC(=O)O)cc2-c2ccc3[nH]ccc3c2)c1 [Compound 175, 3-[4-(3,5-dimethylphenylmethyloxy)-3-(1H-indol-5-yl)phenyl]propionic acid]	≥ 50%
O=C(O)CCc1ccc(OC2CCCCCC2)c(-c2ccc3[nH]ccc3c2)c1 [Compound 184, 3-[4-cycloheptyloxy-3-(1H-indol-5-yl)phenyl]propionic acid]	≥ 50%
O=C(O)CCc1ccc(OCc2cc(Cl)cc(Cl)c2)c(-c2ccc3[nH]ccc3c2)c1 [Compound 188, 3-[4-(3,5-dichlorophenylmethyloxy)-3-(1H-indol-5-yl)phenyl]propionic acid]	≥ 50%
O=C(O)CCc1ccc(OCc2ccco2)c(-c2ccc3[nH]ccc3c2)c1 [Compound 194, 3-{4-[(furan-2-yl)methyloxy]-3-(1H-indol-5-yl)phenyl}propionic acid]	≥ 50%
O=C(O)CCc1ccc(OCc2ccoc2)c(-c2ccc3[nH]ccc3c2)c1 [Compound 196, 3-{4-[(furan-3-yl)methyloxy]-3-(1H-indol-5-yl)phenyl}propionic acid]	≥ 50%
O=C(O)CCc1ccc(OCc2cccs2)c(-c2ccc3[nH]ccc3c2)c1 [Compound 198, 3-{3-(1H-indol-5-yl)-4-[(thiophen-2-yl)methyloxy]phenyl}propionic acid]	≥ 50%
CC(C)n1ccc2cc(-c3cc(CCC(=O)O)ccc3OCC3CCCC3)ccc21 [Compound 238, 3-[4-cyclopentylmethyloxy-3-(1-isopropyl-1H-indol-5-yl)phenyl]propionic acid]	≥ 50%
CCCCn1ccc2cc(-c3cc(CCC(=O)O)ccc3OCC3CCCC3)ccc21 [Compound 240, 3-[3-(1-butyl-1H-indol-5-yl)-4-cyclopentylmethyloxyphenyl]propionic acid]	≥ 50%
O=C(O)CCc1ccc(OCC2CCCC2)c(-c2ccc3c(ccn3C3CCCC3)c2)c1 [Compound 242, 3-[3-(1-cyclopentyl-1H-indol-5-yl)-4-cyclopentylmethyloxyphenyl]propionic acid]	≥ 50%
Cc1cn(C)c2ccc(-c3cc(CCC(=O)O)ccc3OCC3CCCC3)cc12 [Compound 252, 3-[4-cyclopentylmethyloxy-3-(1,3-dimethyl-1H-indol-5-yl)phenyl]propionic acid]	≥ 50%

Structure (SMILES)	inhibition at 0.4 µM
O=Cc1c[nH]c2ccc(-c3cc(CCC(=O)O)ccc3OCC3CCCC3)cc12 [Compound 254, 3-[4-cyclopentylmethyloxy-3-(3-formyl-1H-indol-5-yl)phenyl]propionic acid]	≥ 50%
Cn1cc(C=O)c2cc(-c3cc(CCC(=O)O)ccc3OCC3CCCC3)ccc21 [Compound 255, 3-[4-cyclopentylmethyloxy-3-(3-formyl-1-methyl-1H-indol-5-yl)phenyl]propionic acid]	≥ 50%
CC(=O)c1cn(C)c2ccc(-c3cc(CCC(=O)O)ccc3OCC3CCCC3)cc12 [Compound 259, 3-[3-(3-acetyl-1-methyl-1H-indol-5-yl)-4-cyclopentylmethyloxyphenyl]propionic acid]	≥ 50%
O=C(O)CCc1cc(Cl)c(OCC2CCCC2)c(-c2ccc3[nH]ccc3c2)c1 [Compound 263, 3-[3-chloro-4-cyclopentylmethyloxy-5-(1H-indol-5-yl)phenyl]propionic acid]	≥ 50%
Cn1ccc2cc(-c3cc(CCC(=O)O)cc(N)c3OCC3CCCC3)ccc21 [Compound 269, 3-[3-amino-4-cyclopentylmethyloxy-5-(1-methyl-1H-indol-5-yl)phenyl]propionic acid]	≥ 50%
Cc1[nH]c2ccc(-c3cc(CCC(=O)O)ccc3OCC3CCCCC3)cc2c1C [Compound 273, 3-[4-cyclohexylmethyloxy-3-(2,3-dimethyl-1H-indol-5-yl)phenyl]propionic acid]	≥ 50%
O=C(O)CCc1ccc(OCC2CCCC2)c(-c2ccc3occc3c2)c1 [Compound 277, 3-[3-(benzo[b]furan-5-yl)-4-cyclopentylmethyloxyphenyl]propionic acid]	≥ 50%
Cc1oc2ccc(-c3cc(CCC(=O)O)ccc3OCC3CCCCC3)cc2c1C [Compound 279, 3-[4-cyclohexylmethyloxy-3-(2,3-dimethylbenzo[b]furan-5-yl)phenyl]propionic acid]	≥ 50%
Cc1nc2cc(-c3cc(CCC(=O)O)ccc3OCC3CCCC3)ccc2s1 [Compound 283, 3-[4-cyclopentylmethyloxy-3-(2-methylbenzothiazol-5-yl)phenyl]propionic acid]	≥ 50%
Nc1nc2cc(-c3cc(CCC(=O)O)ccc3OCC3CCCC3)ccc2s1 [Compound 285, 3-[3-(2-aminobenzothiazol-5-yl)-4-cyclopentylmethyloxyphenyl]propionic acid]	≥ 50%
CNc1nc2ccc(-c3cc(CCC(=O)O)ccc3OCC3CCCC3)cc2s1 [Compound 297, 3-[4-cyclopentylmethyloxy-3-(2-methylaminobenzothiazol-6-yl)phenyl]propionic acid]	≥ 50%
Cn1c(=N)sc2cc(-c3cc(CCC(=O)O)ccc3OCC3CCCC3)ccc21 [Compound 303, 3-[4-cyclopentylmethyloxy-3-(2-imino-3-methyl-2,3-dihydrobenzothiazol-6-yl)phenyl]propionic acid]	≥ 50%
CN=c1sc2cc(-c3cc(CCC(=O)O)ccc3OCC3CCCC3)ccc2n1C [Compound 305, 3-{4-cyclopentylmethyloxy-3-[3-methyl-2-(methylimino)-2,3-dihydrobenzothiazol-6-yl]phenyl}propionic acid]	≥ 50%
COc1nc2ccc(-c3cc(CCC(=O)O)ccc3OCC3CCCC3)cc2s1 [Compound 306, 3-[4-cyclopentylmethyloxy-3-(2-methoxybenzothiazol-6-yl)phenyl]propionic acid]	≥ 50%
Cc1nc2ccc(-c3cc(CCC(=O)O)ccc3OCC3CCCC3)cc2s1 [Compound 308, 3-[4-cyclopentylmethyloxy-3-(2-methylbenzothiazol-6-yl)phenyl]propionic acid]	≥ 50%
O=C(O)CCc1ccc(OCC2CCCC2)c(-c2ccc3[nH]c(=S)sc3c2)c1 [Compound 309, 3-[4-cyclopentylmethyloxy-3-(2-thioxo-2,3-dihydrobenzothiazol-6-yl)phenyl]propionic acid]	≥ 50%
O=C(O)CCc1ccc(OCC2CCCC2)c(-c2ccc3[nH]c(=O)sc3c2)c1 [Compound 310, 3-[4-cyclopentylmethyloxy-3-(2-oxo-2,3-dihydrobenzothiazol-6-yl)-phenyl]propionic acid]	≥ 50%
Cn1c(=O)sc2cc(-c3cc(CCC(=O)O)ccc3OCC3CCCC3)ccc21 [Compound 313, 3-[4-cyclopentylmethyloxy-3-(2-oxo-3-methyl-2,3-dihydrobenzothiazol-6-yl)phenyl]propionic acid]	≥ 50%
O=C(O)CCc1ccc(OCC2CCCC2)c(-c2cnc3ccccc3c2)c1 [Compound 315, 3-[4-cyclopentylmethyloxy-3-(quinolin-3-yl)phenyl]propionic acid]	≥ 50%
